Measurements reported in patent publication US7314861B2, “Melanin-concentrating hormone analogs” (priority 2001, dated 2008).
Where a SMILES comes first, the peptide text is derived from it. Bridges are numbered along the chain shown (N, C = ends). [ ]: non-standard residue; d: D form. The star is where a group is joined. Pentanoyl(5-guanidino) = NC(N)=NCCCCC(=O)*

Key:
human MCH-R2 = human MCH-R2 (Homo sapiens, UniProt Q969V1); test: Aequorin bioluminescence functional assay, MCH-2R; conditions: for EC50: MCH-2R EC50 (nM); for EC50 / MCH-2R Activation %: aequorin functional assay; for MCH-2R Activation %: % Activation at 10 μM; for selective activity at MCH-2R over MCH-1R: greater binding and/or activation at MCH-2R than at MCH-1R
Sequence of human MCH-R2 (Q969V1 whole entry): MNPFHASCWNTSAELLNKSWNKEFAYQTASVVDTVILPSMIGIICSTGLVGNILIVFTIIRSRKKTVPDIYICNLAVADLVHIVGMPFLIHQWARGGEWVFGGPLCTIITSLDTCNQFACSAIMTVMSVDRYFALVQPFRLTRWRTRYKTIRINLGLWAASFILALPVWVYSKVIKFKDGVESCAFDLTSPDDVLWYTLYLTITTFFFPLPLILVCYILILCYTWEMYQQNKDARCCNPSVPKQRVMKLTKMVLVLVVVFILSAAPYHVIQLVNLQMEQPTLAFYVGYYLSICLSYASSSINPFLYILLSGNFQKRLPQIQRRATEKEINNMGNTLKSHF

human MCH-1R = human MCH-1R (Homo sapiens, UniProt Q99705); test: Aequorin bioluminescence functional assay, MCH-1R; conditions: for MCH-1R Activation %: % Activation at 10 μM, aequorin functional assay
Sequence of human MCH-1R (Q99705 whole entry): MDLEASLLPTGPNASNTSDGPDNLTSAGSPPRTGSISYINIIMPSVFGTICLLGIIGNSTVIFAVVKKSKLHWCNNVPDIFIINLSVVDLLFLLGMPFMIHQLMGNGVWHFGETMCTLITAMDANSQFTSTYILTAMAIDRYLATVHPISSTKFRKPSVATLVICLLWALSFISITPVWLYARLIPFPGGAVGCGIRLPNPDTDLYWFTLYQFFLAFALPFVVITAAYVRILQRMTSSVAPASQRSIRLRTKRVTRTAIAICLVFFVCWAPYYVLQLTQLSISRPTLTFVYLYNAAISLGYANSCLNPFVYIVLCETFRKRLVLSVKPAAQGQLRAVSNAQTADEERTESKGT
Experimental: The aequorin bioluminescence assay can be used to measure the activity of G protein-coupled receptors that couple through the Gα protein subunit family consisting of Gq and G11. Such coupling leads to phospholipase C activation, intracellular calcium mobilization and protein kinase C activation.
Following approximately 40 hours of expression the apo-aequorin in the cells was charged for 4 hours with coelenterazine (10 μM) under reducing conditions (300 μM reduced glutathione) in ECB buffer (140 mM NaCl, 20 mM KCl, 20 mM HEPES-NaOH [pH=7.4], 5 mM glucose, 1 mM MgCl2, 1 mM CaCl2, 0.1 mg/ml bovine serum albumin).
The cells were harvested, washed once in ECB medium and resuspended to 500,000 cells/ml. 100 μl of cell suspension (corresponding to 5×10^4 cells) was then injected into the test plate containing MCH or MCH analogs, and the integrated light emission was recorded over 30 seconds, in 0.5 second units. 20 μL of lysis buffer (0.1% final Triton X-100 concentration) was then injected and the integrated light emission recorded over 10 seconds, in 0.5 second units. The “fractional response” values for each well were calculated by taking the ratio of the integrated response to the initial challenge to the total integrated luminescence including the Triton X-100 lysis response.

Structure (SMILES)	MCH-2R Activation % (human MCH-R2; Table 1)	MCH-1R Activation % (human MCH-1R; Table 1)	EC50 (human MCH-R2; Table 1, 293-AEQ17 cells)	selective activity at MCH-2R over MCH-1R (human MCH-R2)	further results
CSCC[C@@H]1NC(=O)[C@@H](NC(=O)[C@H](CCCNC(=N)N)NC(=O)[C@H](CC(C)C)NC(=O)[C@H](CCSC)NC(=O)[C@H](CC(=O)O)NC(=O)[C@H](Cc2ccccc2)NC(=O)[C@@H](N)CC(=O)O)CSSC[C@@H](C(=O)N[C@@H](Cc2c[nH]c3ccccc23)C(=O)N[C@@H](CCC(N)=O)C(=O)N[C@H](C(=O)O)C(C)C)NC(=O)[C@@H]2CCCN2C(=O)[C@H](CCCNC(=N)N)NC(=O)[C@H](C)NC(=O)[C@H](C(C)C)NC(=O)[C@H](CCCNC(=N)N)NC(=O)CNC(=O)[C@H](CC(C)C)NC1=O [compound 51] (H-DFDMLRCMLGRVARPCWQV-OH; disulfide 7-16; N-terminus and C-terminus assumed)					EC50 (human MCH-R2; Table 3): > 1000 nM; MCH-1R Activation % (human MCH-1R; Table 3): 20%
CC(=O)N[C@@H](CCCNC(=N)N)C(=O)N[C@H]1CSSC[C@@H](C(N)=O)NC(=O)[C@@H]2CCCN2C(=O)[C@H](CCCNC(=N)N)NC(=O)[C@H](Cc2ccc(O)cc2)NC(=O)[C@H](C(C)C)NC(=O)[C@H](CCCCNC(=N)N)NC(=O)[C@@H](C)NC(=O)[C@H](CC(C)C)NC(=O)[C@H](C)NC1=O [compound 38]	49%	20%			EC50 (human MCH-1R): > 10000 nM
CSCC[C@@H]1NC(=O)[C@@H](NC(=O)[C@H](CCCNC(=N)N)NC(C)=O)CSSC[C@@H](C(N)=O)NC(=O)[C@@H]2CCCN2C(=O)[C@H](CCCNC(=N)N)NC(=O)[C@H](Cc2ccc(O)cc2)NC(=O)[C@H](C(C)C)NC(=O)[C@H](CCCNC(=N)N)NC(=O)[C@@H](Cc2ccccc2)NC(=O)[C@H](CC(C)C)NC1=O [compound 17]	102%	5%	25 nM	selectively active	EC50 (human MCH-1R): > 10000 nM
CSCC[C@@H]1NC(=O)[C@@H](NC(=O)CCCCNC(=N)N)CSSC[C@@H](C(N)=O)NC(=O)[C@@H]2CCCN2C(=O)[C@H](CCCNC(=N)N)NC(=O)[C@H](Cc2ccc(O)cc2)NC(=O)[C@H](C(C)C)NC(=O)[C@H](CCCNC(=N)N)NC(=O)[C@@H](C)NC(=O)[C@H](CC(C)C)NC1=O [compound 34] ({Pentanoyl(5-guanidino)}-CML[dA]RVYRPC-NH2; disulfide 1-10)				selectively active	
CSCC[C@@H]1NC(=O)[C@@H](NC(=O)[C@H](CCCNC(=N)N)NC(C)=O)CSSC[C@@H](C(N)=O)NC(=O)[C@@H]2CCCN2C(=O)[C@H](CCCNC(=N)N)NC(=O)[C@H](Cc2ccc(O)cc2)NC(=O)[C@H](C(C)C)NC(=O)[C@H](CCCCNC(=N)N)NC(=O)CNC(=O)[C@H](CC(C)C)NC1=O [compound 24]	43%	72%	> 10000 nM		
CSCC[C@@H]1NC(=O)[C@@H](NC(C)=O)CSSC[C@@H](C(N)=O)NC(=O)[C@@H]2CCCN2C(=O)[C@H](CCCNC(=N)N)NC(=O)[C@H](Cc2ccc(O)cc2)NC(=O)[C@H](C(C)C)NC(=O)[C@H](CCCNC(=N)N)NC(=O)CNC(=O)[C@H](CC(C)C)NC1=O [compound 3]		6.5%			
CSCC[C@@H]1NC(=O)[C@@H](NC(=O)[C@H](CCCNC(=N)N)NC(C)=O)CSSC[C@@H](C(N)=O)NC(=O)[C@@H]2CCCN2C(=O)[C@H](CCCNC(=N)N)NC(=O)[C@H](Cc2ccc(O)cc2)NC(=O)[C@H](C(C)C)NC(=O)[C@H](CCCNC(=N)N)NC(=O)CNC(=O)[C@H](CC(C)C)NC1=O [compound 2]					MCH-1R Activation % (human MCH-1R; Table 2): 99%
CSCC[C@H](NC(=O)[C@H](CC(=O)O)NC(=O)[C@H](C)NC(=O)[C@@H](N)CC(=O)O)C(=O)N[C@@H](CC(C)C)C(=O)N[C@@H](CCCNC(=N)N)C(=O)N[C@H]1CSSC[C@@H](C(=O)N[C@@H](Cc2c[nH]c3ccccc23)C(=O)N[C@@H](CCC(N)=O)C(=O)N[C@H](C(=O)O)C(C)C)NC(=O)[C@@H]2CCCN2C(=O)[C@H](CCCNC(=N)N)NC(=O)[C@H](Cc2ccc(O)cc2)NC(=O)[C@H](C(C)C)NC(=O)[C@H](CCCNC(=N)N)NC(=O)CNC(=O)[C@H](CC(C)C)NC(=O)[C@H](CCSC)NC1=O [compound 42] (H-DADMLRCMLGRVYRPCWQV-OH; disulfide 7-16; N-terminus and C-terminus assumed)					MCH-2R Activation % (human MCH-R2; Table 3): 102%; MCH-1R Activation % (human MCH-1R; Table 3): 97%
CSCC[C@@H]1NC(=O)[C@@H](NC(=O)[C@H](CCCNC(=N)N)NC(C)=O)CSSC[C@@H](C(N)=O)NC(=O)[C@@H]2CCCN2C(=O)[C@H](CCCNC(=N)N)NC(=O)[C@H](Cc2ccc(O)cc2)NC(=O)[C@H](C(C)C)NC(=O)[C@H](CCCNC(=N)N)NC(=O)[C@H](C)NC(=O)[C@H](CC(C)C)NC1=O [compound 7]	97%	104%			
CSCC[C@@H]1NC(=O)[C@@H](NC(=O)[C@H](CCCNC(=N)N)NC(C)=O)CSSC[C@@H](C(N)=O)NC(=O)[C@@H]2CCCN2C(=O)[C@H](CCCNC(=N)N)NC(=O)[C@H](Cc2ccc(O)cc2)NC(=O)[C@H](C(C)C)NC(=O)[C@H](CCCNC(=N)N)NC(=O)C(C)(C)NC(=O)[C@H](CC(C)C)NC1=O [compound 11]	104%	22%	24 nM	selectively active	
CSCC[C@@H]1NC(=O)[C@@H](NC(=O)[C@H](CCCNC(=N)N)NC(C)=O)CSSC[C@@H](C(N)=O)NC(=O)[C@@H]2CCCN2C(=O)[C@H](CCCNC(=N)N)NC(=O)[C@H](Cc2ccc(O)cc2)NC(=O)[C@H](C(C)C)NC(=O)[C@H](CCCNC(=N)N)NC(=O)[C@H](c2ccccc2)NC(=O)[C@H](CC(C)C)NC1=O [compound 12]	80%	0.1%	140 nM	selectively active	EC50 (human MCH-1R): > 10000 nM
CSCC[C@@H]1NC(=O)[C@@H](NC(=O)[C@H](CCCNC(=N)N)NC(=O)[C@H](CC(C)C)NC(=O)[C@H](CCSC)NC(=O)[C@H](CC(=O)O)NC(=O)[C@H](Cc2ccccc2)NC(=O)[C@@H](N)CC(=O)O)CSSC[C@@H](C(=O)N[C@@H](C)C(=O)N[C@@H](CCC(N)=O)C(=O)N[C@H](C(=O)O)C(C)C)NC(=O)[C@@H]2CCCN2C(=O)[C@H](CCCNC(=N)N)NC(=O)[C@H](Cc2ccc(O)cc2)NC(=O)[C@H](C(C)C)NC(=O)[C@H](CCCNC(=N)N)NC(=O)CNC(=O)[C@H](CC(C)C)NC1=O [compound 54] (H-DFDMLRCMLGRVYRPCAQV-OH; disulfide 7-16; N-terminus and C-terminus assumed)					MCH-2R Activation % (human MCH-R2; Table 3): 95%; MCH-1R Activation % (human MCH-1R; Table 3): 100%
CSCC[C@@H]1NC(=O)[C@@H](NC(=O)[C@H](CCCNC(=N)N)NC(C)=O)CSSC[C@@H](C(N)=O)NC(=O)[C@@H]2CCCN2C(=O)[C@H](CCCNC(=N)N)NC(=O)[C@H](Cc2ccc(O)cc2)NC(=O)[C@H](C(C)C)NC(=O)[C@H](CCCNC(=N)N)NC(=O)[C@H](CC(C)C)NC(=O)[C@H](CC(C)C)NC1=O [compound 8]	80%	106%			
CSCC[C@@H]1NC(=O)[C@@H](NC(=O)[C@H](CCCNC(=N)N)NC(=O)[C@H](CC(C)C)NC(=O)[C@H](CCSC)NC(=O)[C@H](CC(=O)O)NC(=O)[C@H](Cc2ccccc2)NC(=O)[C@@H](N)CC(=O)O)CSSC[C@@H](C(=O)N[C@@H](Cc2c[nH]c3ccccc23)C(=O)N[C@@H](CCC(N)=O)C(=O)N[C@H](C(=O)O)C(C)C)NC(=O)[C@@H]2CCCN2C(=O)[C@H](CCCNC(=N)N)NC(=O)[C@H](Cc2ccc(O)cc2)NC(=O)[C@H](C(C)C)NC(=O)[C@H](C)NC(=O)CNC(=O)[C@H](CC(C)C)NC1=O [compound 49] (H-DFDMLRCMLGAVYRPCWQV-OH; disulfide 7-16; N-terminus and C-terminus assumed)					EC50 (human MCH-R2; Table 3): > 1000 nM; MCH-1R Activation % (human MCH-1R; Table 3): 24%
CSCC[C@@H]1NC(=O)[C@@H](NC(=O)[C@H](CCCNC(=N)N)NC(C)=O)CSSC[C@@H](C(N)=O)NC(=O)[C@@H]2CCCN2C(=O)[C@H](CCCNC(=N)N)NC(=O)[C@H](Cc2ccc(O)cc2)NC(=O)[C@H](C(C)C)NC(=O)[C@H](CCCNC(=N)N[N+](=O)[O-])NC(=O)CNC(=O)[C@H](CC(C)C)NC1=O [compound 25]	39%		> 10000 nM	selectively active	EC50 (human MCH-1R): > 1000 nM
CSCC[C@@H]1NC(=O)[C@@H](NC(=O)[C@H](CCCNC(=N)N)NC(C)=O)CSSC[C@@H](C(N)=O)NC(=O)[C@@H]2CCCN2C(=O)[C@H](CCCNC(=N)N)NC(=O)[C@H](Cc2ccc(O)cc2)NC(=O)[C@H](C(C)C)NC(=O)[C@H](CCCNC(=N)N)NC(=O)[C@@H](CC2CCCCC2)NC(=O)[C@H](CC(C)C)NC1=O [compound 16]		0.1%		selectively active	EC50 (human MCH-1R): > 10000 nM
CSCC[C@@H]1NC(=O)[C@@H](NC(=O)[C@H](CCCNC(=N)N)NC(C)=O)CSSC[C@@H](C(N)=O)NC(=O)[C@@H]2CCCN2C(=O)[C@H](CCCNC(=N)N)NC(=O)[C@H](Cc2ccc(O)cc2)NC(=O)[C@H](C(C)C)NC(=O)[C@H](CCCNC(=N)N)NC(=O)[C@@H](C)NC(=O)[C@H](CC(C)C)NC1=O [compound 13]	103%	40%	16 nM	selectively active	
CSCC[C@@H]1NC(=O)[C@@H](NC(=O)[C@H](CCCNC(=N)N)NC(=O)[C@H](CC(C)C)NC(=O)[C@H](CCSC)NC(=O)[C@H](CC(=O)O)NC(=O)[C@H](Cc2ccccc2)NC(=O)[C@H](C)N)CSSC[C@@H](C(=O)N[C@@H](Cc2c[nH]c3ccccc23)C(=O)N[C@@H](CCC(N)=O)C(=O)N[C@H](C(=O)O)C(C)C)NC(=O)[C@@H]2CCCN2C(=O)[C@H](CCCNC(=N)N)NC(=O)[C@H](Cc2ccc(O)cc2)NC(=O)[C@H](C(C)C)NC(=O)[C@H](CCCNC(=N)N)NC(=O)CNC(=O)[C@H](CC(C)C)NC1=O [compound 41] (H-AFDMLRCMLGRVYRPCWQV-OH; disulfide 7-16; N-terminus and C-terminus assumed)					MCH-2R Activation % (human MCH-R2; Table 3): 96%; MCH-1R Activation % (human MCH-1R; Table 3): 96%
